Test results reported in BigSolDB 2.1.

O=C(O)C[C@H](O)C(=O)O
solubility (mole fraction)
Conditions | 278.15 K | 283.15 K | 288.15 K | 293.15 K | 298.15 K | 303.15 K | 308.15 K | 313.15 K | 318.15 K | 323.15 K
in acetone | 0.136 | 0.145 | 0.153 | 0.163 | 0.17 | 0.18 | 0.189 | 0.201 | 0.211 | 0.225
in acetonitrile | 0.045 | 0.0485 | 0.0523 | 0.0559 | 0.0608 | 0.0646 | 0.0684 | 0.0733 | 0.0783 | 0.0838
in ethanol | 0.11 | 0.126 | 0.145 | 0.166 | 0.187 | 0.207 | 0.232 | 0.256 | 0.283 | 0.314
in ethyl acetate | 0.0017 | 0.0029 | 0.005 | 0.0083 | 0.0134 | 0.0213 | 0.0333 | 0.0516 | 0.0763 | 0.113
in isopropanol | 0.117 | 0.136 | 0.157 | 0.178 | 0.203 | 0.228 | 0.256 | 0.285 | 0.314 | 0.345
in n-butanol | 0.0832 | 0.0948 | 0.109 | 0.124 | 0.14 | 0.159 | 0.18 | 0.201 | 0.225 | 0.25
in n-propanol | 0.0917 | 0.103 | 0.118 | 0.134 | 0.153 | 0.172 | 0.193 | 0.215 | 0.238 | 0.264
